Like-named read-outs stand apart in the source and are kept apart here.
Experiments:
[1] = Stability of drug formulation stored in the pump at 37° C.; format: physicochemical; conditions: stored in the pump at 37° C. for 4 weeks
[2] = In vivo pharmacokinetics of lisinopril, pump versus subcutaneous injection; conditions: for Cmax: plasma, read-out: maximum plasma concentration (Cmax)
Method: The time taken to reach the Cmax (Tmax) was 30 min in both groups. […] Drug leakage in the implanted pump was not detected during the non-actuation periods over a 28-day period.

SMILES | stability of formulation in the pump [1] | Cmax ([2]; other: implanted pump, Pump-lisinopril group) | Cmax ([2]; sc, Inj-lisinopril group (subcutaneous injection)) | area under the curve of plasma lisinopril concentration versus time (AUC) ([2]; pump group) | area under the curve of plasma lisinopril concentration versus time (AUC) ([2]; subcutaneous injection group)
CC(C)C[C@H]1C(=O)N2CCC[C@H]2[C@]2(O)O[C@](NC(=O)[C@@H]3C=C4c5cccc6[nH]c(Br)c(c56)C[C@H]4N(C)C3)(C(C)C)C(=O)N12 [bromocriptine] | stable without apparent denaturation |  |  |  | 
NCCCC[C@H](N[C@@H](CCc1ccccc1)C(=O)O)C(=O)N1CCC[C@H]1C(=O)O [lisinopril] |  | 394 ± 83.2 ng/mL | 323 ± 64.7 ng/mL | 25335.5 ± 7640.9 ng·min/mL | 24484.5 ± 5643.8 ng·min/mL

Source: US20230001083A1, “ACTUATABLE DEVICE FOR PULSATILE DRUG DELIVERY” (Massachusetts Institute of Technology, priority 2019, published 2023)
